Assays:
Assay type in all cases: functional
PC-12 [1] = test: Neuroprotective activity in rat PC12 cells assessed as protection against glutamate induced excitotoxicity at 20 uM pretreated with glutamate for 24 hrs followed by compound addition and measured after 24 hrs
PC-12 [2] = test: Neuroprotective activity against H2O2-induced oxidative damage in rat PC12 cells assessed as increase in cell survival at 20 uM pretreated with H2O2 for 24 hrs followed by compound addition and measured after 24 hrs; settings: read-out: Survival
PC-12 [3] = test: Neuroprotective activity against H2O2-induced oxidative damage in rat PC12 cells at 20 uM pretreated with H2O2 for 24 hrs followed by compound addition and measured after 24 hrs
PC-12 [4] = test: Neuroprotective activity against glutamate induced excitotoxicity in rat PC12 cells assessed as cell survival at 20 uM pretreated with glutamate for 24 hrs followed by compound addition and measured after 24 hrs; settings: read-out: Survival

## COc1ccc(N(C)C(=O)Oc2cc3oc4cc5c(c(O)c4c(=O)c3c(CC=C(C)C)c2OC)C=CC(C)(C)O5)cc1
PC-12 [1]
  Activity: 26.88%
PC-12 [2]
  viability at 20 µM: 62.5%
PC-12 [3]
  Activity: 16%
PC-12 [4]
  viability at 20 µM: 49.2%

## COc1c(OC(=O)N(C)c2ccccc2C)cc2oc3cc4c(c(O)c3c(=O)c2c1CC=C(C)C)C=CC(C)(C)O4
PC-12 [1]
  Activity: 36.26%
PC-12 [2]
  viability at 20 µM: 66.8%
PC-12 [3]
  Activity: 25.55%
PC-12 [4]
  viability at 20 µM: 55.7%

## CCc1ccc(N(C)C(=O)Oc2cc3oc4cc5c(c(O)c4c(=O)c3c(CC=C(C)C)c2OC)C=CC(C)(C)O5)cc1
PC-12 [1]
  Activity: 29.26%
PC-12 [2]
  viability at 20 µM: 65.5%
PC-12 [3]
  Activity: 22.79%
PC-12 [4]
  viability at 20 µM: 50.8%

## COc1c(OC(=O)N(C)c2cccc(Br)c2)cc2oc3cc4c(c(O)c3c(=O)c2c1CC=C(C)C)C=CC(C)(C)O4
PC-12 [1]
  Activity: 3.74%
PC-12 [2]
  viability at 20 µM: 57.7%
PC-12 [3]
  Activity: 5.11%
PC-12 [4]
  viability at 20 µM: 33.1%

## CCN(C(=O)Oc1cc2oc3cc4c(c(O)c3c(=O)c2c(CC=C(C)C)c1OC)C=CC(C)(C)O4)c1ccccc1
PC-12 [1]
  Activity: 38.13%
PC-12 [2]
  viability at 20 µM: 65.1%
PC-12 [3]
  Activity: 21.74%
PC-12 [4]
  viability at 20 µM: 57%

## COc1c(OC(=O)N(C)c2ccccc2F)cc2oc3cc4c(c(O)c3c(=O)c2c1CC=C(C)C)C=CC(C)(C)O4
PC-12 [1]
  Activity: 43.78%
PC-12 [2]
  viability at 20 µM: 70.9%
PC-12 [3]
  Activity: 34.69%
PC-12 [4]
  viability at 20 µM: 60.9%

## CCc1cccc(N(C)C(=O)Oc2cc3oc4cc5c(c(O)c4c(=O)c3c(CC=C(C)C)c2OC)C=CC(C)(C)O5)c1
PC-12 [1]
  Activity: 37.14%
PC-12 [2]
  viability at 20 µM: 60.7%
PC-12 [3]
  Activity: 11.9%
PC-12 [4]
  viability at 20 µM: 56.3%

## COc1c(OC(=O)N(CC2CC2)c2cccc(C)c2)cc2oc3cc4c(c(O)c3c(=O)c2c1CC=C(C)C)C=CC(C)(C)O4
PC-12 [1]
  Activity: 35.08%
PC-12 [2]
  viability at 20 µM: 73%
PC-12 [3]
  Activity: 39.49%
PC-12 [4]
  viability at 20 µM: 54.9%

## COc1c(OC(=O)N(C)c2ccccc2)cc2oc3cc4c(c(OC)c3c(=O)c2c1CC=C(C)C)C=CC(C)(C)O4
PC-12 [1]
  Activity: 46.32%
PC-12 [2]
  viability at 20 µM: 70.9%
PC-12 [3]
  Activity: 34.72%
PC-12 [4]
  viability at 20 µM: 62.7%

## COc1cccc(N(C)C(=O)Oc2cc3oc4cc5c(c(O)c4c(=O)c3c(CC=C(C)C)c2OC)C=CC(C)(C)O5)c1
PC-12 [1]
  Activity: 31.84%
PC-12 [2]
  viability at 20 µM: 59.6%
PC-12 [3]
  Activity: 9.57%
PC-12 [4]
  viability at 20 µM: 52.6%

## COc1c(OC(=O)N(C)c2cccc(C)c2)cc2oc3cc4c(c(O)c3c(=O)c2c1CC=C(C)C)C=CC(C)(C)O4
PC-12 [1]
  Activity: 39.04%
PC-12 [2]
  viability at 20 µM: 66.8%
PC-12 [3]
  Activity: 25.7%
PC-12 [4]
  viability at 20 µM: 57.6%

## COc1c(OC(=O)N(C)c2ccccc2)cc2oc3cc4c(c(OCc5ccc(C(F)(F)F)cc5)c3c(=O)c2c1CC=C(C)C)C=CC(C)(C)O4
PC-12 [1]
  Activity: 6.46%
PC-12 [2]
  viability at 20 µM: 60.9%
PC-12 [3]
  Activity: 12.35%
PC-12 [4]
  viability at 20 µM: 35%

## COc1c(OC(=O)N(C)c2ccccc2C)cc2oc3cc4c(c(OC)c3c(=O)c2c1CC=C(C)C)C=CC(C)(C)O4
PC-12 [1]
  Activity: 31.44%
PC-12 [2]
  viability at 20 µM: 69.3%
PC-12 [3]
  Activity: 31.11%
PC-12 [4]
  viability at 20 µM: 52.3%

## COc1c(OC(=O)N(CC2CC2)c2ccccc2C)cc2oc3cc4c(c(O)c3c(=O)c2c1CC=C(C)C)C=CC(C)(C)O4
PC-12 [1]
  Activity: 0%
PC-12 [2]
  viability at 20 µM: 60.6%
PC-12 [3]
  Activity: 11.7%
PC-12 [4]
  viability at 20 µM: 30.5%

## COc1c(OC(=O)N(C)c2ccc(C)cc2)cc2oc3cc4c(c(O)c3c(=O)c2c1CC=C(C)C)C=CC(C)(C)O4
PC-12 [1]
  Activity: 29.08%
PC-12 [2]
  viability at 20 µM: 63%
PC-12 [3]
  Activity: 17.03%
PC-12 [4]
  viability at 20 µM: 50.7%

## COc1c(OC(=O)N(C)c2cccc(C)c2)cc2oc3cc4c(c(OC)c3c(=O)c2c1CC=C(C)C)C=CC(C)(C)O4
PC-12 [1]
  Activity: 38.81%
PC-12 [2]
  viability at 20 µM: 62.3%
PC-12 [3]
  Activity: 15.51%
PC-12 [4]
  viability at 20 µM: 57.5%

## CC1=NN(c2ccccc2)C(=O)C1 [EDARAVONE]
PC-12 [2]
  viability at 20 µM: 80.5%
PC-12 [3]
  Activity: 56.36%

— ChEMBL document CHEMBL5346922, “Discovery of phenylcarbamoyl xanthone derivatives as potent neuroprotective agents for treating ischemic stroke” (Eur J Med Chem, 2023)
